Assay results published in patent US8637525B2, “Compounds for the reduction of beta-amyloid production” (Bristol-Myers Squibb Company, priority 2009, dated 2014).
Structures can show the parent of a compound that is named as a salt.

tested on: Aβ1-42 production; assay: Cellular assay for inhibition of Aβ1-42 production (H4 APP751 SWE clone 8.20); format: cell-based; settings: 19 h, H4 APP751 SWE clone 8.20 cells, 19 h incubation; class symbols; read-out: Activity Rating (Aβ42 cellular IC50)
Summary of the method: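 Inhibition values are IC50s fitted to Viewlux counts after a 19 h compound exposure at 37 °C. Aβ42 was captured by the neoepitope-specific antibody 565 (0.8 ng/well) paired with N-terminal 26D6 (75 ng/well), incubated overnight at 4 °C in pH 7.4 Tris-HCl buffer containing 0.2% BSA.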

| IC50 [nM] | Structure (SMILES) |
| --- | --- |
| 10 to 100 | CNc1nc(Nc2ccc(-n3ncnc3C)c(F)c2)nc2c1CCC2c1cc(F)c(F)c(F)c1 (stereo not drawn) [Example 104, N^2-(3-fluoro-4-(5-methyl-1H-1,2,4-triazol-1-yl)phenyl)-N^4-methyl-7-(3,4,5-trifluorophenyl)-6,7-dihydro-5H-cyclopenta[d]pyrimidine-2,4-diamine] |
| 10 to 100 | CNc1nc(Nc2ccc(-n3cnc(Cl)n3)c(OC)c2)nc2c1CCC2c1cc(F)c(F)c(F)c1 (stereo not drawn) [Example 106, N^2-(4-(3-chloro-1H-1,2,4-triazol-1-yl)-3-methoxyphenyl)-N^4-methyl-7-(3,4,5-trifluorophenyl)-6,7-dihydro-5H-cyclopenta[d]pyrimidine-2,4-diamine] |
| 100 to 1000 | CCNc1nc(Nc2ccc(-n3ncnc3C)c(F)c2)nc2c1COCC2c1ccc(C(F)(F)F)cc1 (stereo not drawn) [Example 119B, N4-ethyl-N2-(3-fluoro-4-(5-methyl-1H-1,2,4-triazol-1-yl)phenyl)-8-(4-(trifluoromethyl)phenyl)-7,8-dihydro-5H-pyrano[4,3-d]pyrimidine-2,4-diamine] |

same assay, conditions: 19 h, H4 APP751 SWE clone 8.20 cells, 19 h incubation; read-out: Activity Rating (Aβ42 cellular IC50), numeric value

| IC50 [nM] | Structure (SMILES) |
| --- | --- |
| 8.8 | CNc1nc(Nc2cnc(-n3cnc(Cl)c3)c(OC)c2)nc2c1CCC2c1cc(F)c(F)c(F)c1 (stereo not drawn) [Example 105, N^2-(6-(4-Chloro-1H-imidazol-1-yl)-5-methoxypyridin-3-yl)-N^4-methyl-7-(3,4,5-trifluorophenyl)-6,7-dihydro-5H-cyclopenta[d]pyrimidine-2,4-diamine] |
| 20 | COc1cc(Nc2nc3c(c(N4CC(F)(F)C4)n2)CCC3c2cc(F)c(F)c(F)c2)ccc1-n1cnc(Cl)c1 (stereo not drawn) [Example 108, N-(4-(4-Chloro-1H-imidazol-1-yl)-3-methoxyphenyl)-4-(3,3-difluoroazetidin-1-yl)-7-(3,4,5-trifluorophenyl)-6,7-dihydro-5H-cyclopenta[d]pyrimidin-2-amine] |
| 35 | C=CCC1(c2ccccc2)CCc2c(NCC)nc(Nc3ccc(-n4cnc(Cl)c4)c(OC)c3)nc21 (stereo not drawn) [Example 111, N2-(4-(4-chloro-1H-imidazol-1-yl)-3-methoxyphenyl)-N4-ethyl-7-allyl-7-phenyl-6,7-dihydro-5H-cyclopenta[d]pyrimidine-2,4-diamine] |
| 45 | COc1cc(Nc2nc(N[C@H](C)C3CC3)c3c(n2)C(c2ccc(C(F)(F)F)cc2)COC3)ccc1-n1cnc(Cl)c1 (stereo partly drawn) [Example 117, N2-(4-(4-chloro-1H-imidazol-1-yl)-3-methoxyphenyl)-N4-((R)-1-cyclopropylethyl)-8-(4-(trifluoromethyl)phenyl)-7,8-dihydro-5H-pyrano[4,3-d]pyrimidine-2,4-diamine, TFA] |
| 7.4 | CCNc1nc(Nc2ccc(-n3ncnc3C)c(F)c2)nc2c1COCC2c1ccc(C(F)(F)F)cc1 (stereo not drawn) [Example 119A, N4-ethyl-N2-(3-fluoro-4-(5-methyl-1H-1,2,4-triazol-1-yl)phenyl)-8-(4-(trifluoromethyl)phenyl)-7,8-dihydro-5H-pyrano[4,3-d]pyrimidine-2,4-diamine] |

same assay, conditions: H4 APP751 SWE clone 8.20 cells, 19 h incubation; class symbols; read-out: Activity Rating (Aβ42 cellular IC50)

| Structure (SMILES) | IC50 [nM] |
| --- | --- |
| CNc1nc(Nc2ccc(-n3cnc(Cl)c3)c(OC)c2)nc2c1CCC2c1cc(F)cc(F)c1 (stereo not drawn) [Example 102A, N^2-(4-(4-Chloro-1H-imidazol-1-yl)-3-methoxyphenyl)-7-(3,5-difluorophenyl)-N^4-methyl-6,7-dihydro-5H-cyclopenta[d]pyrimidine-2,4-diamine] | 1.5 to 9.9 |
| CNc1nc(Nc2ccc(-n3cnc(Cl)c3)c(OC)c2)nc2c1CCC2c1cc(F)cc(F)c1 (stereo not drawn) [Example 102B, N^2-(4-(4-Chloro-1H-imidazol-1-yl)-3-methoxyphenyl)-7-(3,5-difluorophenyl)-N^4-methyl-6,7-dihydro-5H-cyclopenta[d]pyrimidine-2,4-diamine] | 10 to 100 |
| CCNc1nc(Nc2ccc(-n3cnc(Cl)c3)c(OC)c2)nc2c1CCC2(C)c1ccccc1 (stereo not drawn) [Example 110A, N2-(4-(4-chloro-1H-imidazol-1-yl)-3-methoxyphenyl)-N4-ethyl-7-methyl-7-phenyl-6,7-dihydro-5H-cyclopenta[d]pyrimidine-2,4-diamine] | 1.5 to 9.9 |
| CCNc1nc(Nc2ccc(-n3cnc(Cl)c3)c(OC)c2)nc2c1CCC2(C)c1ccccc1 (stereo not drawn) [Example 110B, N2-(4-(4-chloro-1H-imidazol-1-yl)-3-methoxyphenyl)-N4-ethyl-7-methyl-7-phenyl-6,7-dihydro-5H-cyclopenta[d]pyrimidine-2,4-diamine] | 10 to 100 |
| CCNc1nc(Nc2ccc(-n3ncnc3C)c(F)c2)nc2c1COCC2c1ccc(F)c(F)c1 (stereo not drawn) [Example 116A, 8-(3,4-difluorophenyl)-N4-ethyl-N2-(3-fluoro-4-(5-methyl-1H-1,2,4-triazol-1-yl)phenyl)-7,8-dihydro-5H-pyrano[4,3-d]pyrimidine-2,4-diamine] | 1.5 to 9.9 |
| CCNc1nc(Nc2ccc(-n3ncnc3C)c(F)c2)nc2c1COCC2c1ccc(F)c(F)c1 (stereo not drawn) [Example 116B, 8-(3,4-difluorophenyl)-N4-ethyl-N2-(3-fluoro-4-(5-methyl-1H-1,2,4-triazol-1-yl)phenyl)-7,8-dihydro-5H-pyrano[4,3-d]pyrimidine-2,4-diamine] | 100 to 1000 |
| COc1cc(Nc2nc(N[C@H](C)C3CC3)c3c(n2)C(c2ccc(C(F)(F)F)cc2)COC3)ccc1-n1cnc(Cl)c1 (stereo partly drawn) [Example 117A, N2-(4-(4-chloro-1H-imidazol-1-yl)-3-methoxyphenyl)-N4-((R)-1-cyclopropylethyl)-8-(4-(trifluoromethyl)phenyl)-7,8-dihydro-5H-pyrano[4,3-d]pyrimidine-2,4-diamine] | 10 to 100 |
| COc1cc(Nc2nc(N[C@H](C)C3CC3)c3c(n2)C(c2ccc(C(F)(F)F)cc2)COC3)ccc1-n1cnc(Cl)c1 (stereo partly drawn) [Example 117B, N2-(4-(4-chloro-1H-imidazol-1-yl)-3-methoxyphenyl)-N4-((R)-1-cyclopropylethyl)-8-(4-(trifluoromethyl)phenyl)-7,8-dihydro-5H-pyrano[4,3-d]pyrimidine-2,4-diamine] | 100 to 1000 |
| CNc1nc(Nc2ccc(-n3cnc(Cl)c3)c(OC)c2)nc2c1COCC2c1ccc(C(F)(F)F)cc1 (stereo not drawn) [Example 120A, N2-(4-(4-chloro-1H-imidazol-1-yl)-3-methoxyphenyl)-N4-methyl-8-(4-(trifluoromethyl)phenyl)-7,8-dihydro-5H-pyrano[4,3-d]pyrimidine-2,4-diamine] | 1.5 to 9.9 |

Further lines, results first:

| IC50 [nM] | Structure (SMILES) |
| --- | --- |
| 1.5 to 9.9 | CCNc1nc(Nc2ccc(-n3cnc(Cl)c3)c(OC)c2)nc2c1COCC2c1cc(F)cc(F)c1 (stereo not drawn) [Example 112A, N2-(4-(4-chloro-1H-imidazol-1-yl)-3-methoxyphenyl)-8-(3,5-difluorophenyl)-N4-ethyl-7,8-dihydro-5H-pyrano[4,3-d]pyrimidine-2,4-diamine] |
| 10 to 100 | CCNc1nc(Nc2ccc(-n3cnc(Cl)c3)c(OC)c2)nc2c1COCC2c1cc(F)cc(F)c1 (stereo not drawn) [Example 112B, N2-(4-(4-chloro-1H-imidazol-1-yl)-3-methoxyphenyl)-8-(3,5-difluorophenyl)-N4-ethyl-7,8-dihydro-5H-pyrano[4,3-d]pyrimidine-2,4-diamine] |
| 1.5 to 9.9 | CCNc1nc(Nc2ccc(-n3cnc(Cl)c3)c(OC)c2)nc2c1COCC2c1ccc(F)c(F)c1 (stereo not drawn) [Example 113A, N2-(4-(4-chloro-1H-imidazol-1-yl)-3-methoxyphenyl)-8-(3,4-difluorophenyl)-N4-ethyl-7,8-dihydro-5H-pyrano[4,3-d]pyrimidine-2,4-diamine] |
| 10 to 100 | CCNc1nc(Nc2ccc(-n3cnc(Cl)c3)c(OC)c2)nc2c1COCC2c1ccc(F)c(F)c1 (stereo not drawn) [Example 113B, N2-(4-(4-chloro-1H-imidazol-1-yl)-3-methoxyphenyl)-8-(3,4-difluorophenyl)-N4-ethyl-7,8-dihydro-5H-pyrano[4,3-d]pyrimidine-2,4-diamine] |
| 10 to 100 | COc1cc(Nc2nc3c(c(N4CC(F)(F)C4)n2)COCC3c2ccc(F)c(F)c2)ccc1-n1cnc(Cl)c1 (stereo not drawn) [Example 114A, N-(4-(4-chloro-1H-imidazol-1-yl)-3-methoxyphenyl)-4-(3,3-difluoroazetidin-1-yl)-8-(3,4-difluorophenyl)-7,8-dihydro-5H-pyrano[4,3-d]pyrimidin-2-amine] |
| 100 to 1000 | COc1cc(Nc2nc3c(c(N4CC(F)(F)C4)n2)COCC3c2ccc(F)c(F)c2)ccc1-n1cnc(Cl)c1 (stereo not drawn) [Example 114B, N-(4-(4-chloro-1H-imidazol-1-yl)-3-methoxyphenyl)-4-(3,3-difluoroazetidin-1-yl)-8-(3,4-difluorophenyl)-7,8-dihydro-5H-pyrano[4,3-d]pyrimidin-2-amine] |
| 1.5 to 9.9 | CNc1nc(Nc2ccc(-n3cnc(Cl)c3)c(OC)c2)nc2c1COCC2c1ccc(F)c(F)c1 (stereo not drawn) [Example 115A, N2-(4-(4-chloro-1H-imidazol-1-yl)-3-methoxyphenyl)-8-(3,4-difluorophenyl)-N4-methyl-7,8-dihydro-5H-pyrano[4,3-d]pyrimidine-2,4-diamine] |
| 10 to 100 | CNc1nc(Nc2ccc(-n3cnc(Cl)c3)c(OC)c2)nc2c1COCC2c1ccc(F)c(F)c1 (stereo not drawn) [Example 115B, N2-(4-(4-chloro-1H-imidazol-1-yl)-3-methoxyphenyl)-8-(3,4-difluorophenyl)-N4-methyl-7,8-dihydro-5H-pyrano[4,3-d]pyrimidine-2,4-diamine] |
| 1.5 to 9.9 | CCNc1nc(Nc2ccc(-n3cnc(Cl)c3)c(OC)c2)nc2c1COCC2c1ccc(C(F)(F)F)cc1 (stereo not drawn) [Example 118A, N2-(4-(4-chloro-1H-imidazol-1-yl)-3-methoxyphenyl)-N4-ethyl-8-(4-(trifluoromethyl)phenyl)-7,8-dihydro-5H-pyrano[4,3-d]pyrimidine-2,4-diamine] |
| 100 to 1000 | CCNc1nc(Nc2ccc(-n3cnc(Cl)c3)c(OC)c2)nc2c1COCC2c1ccc(C(F)(F)F)cc1 (stereo not drawn) [Example 118B, N2-(4-(4-chloro-1H-imidazol-1-yl)-3-methoxyphenyl)-N4-ethyl-8-(4-(trifluoromethyl)phenyl)-7,8-dihydro-5H-pyrano[4,3-d]pyrimidine-2,4-diamine] |
